According to PubChem BioAssay (NCI):
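Interpolation was linear, between the two tested concentrations surrounding the appropriate level; five concentrations were tested over 48 hours in 96-well plates. The concentration for 50% growth inhibition is given as GI50. TGI is the concentration that stops growth completely.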

Key:
Test in all cases: NCI tumour cell line growth inhibition, 48 h; in the data active = GI50 below about 0.43 µM; inactive = the rest
[1] = test system: SF-539 CNS
[2] = test system: HCT-116 colon
[3] = test system: OVCAR-8 ovarian
[4] = test system: K-562 leukemia
[5] = test system: MDA-MB-231 breast
[6] = test system: M14 melanoma
[7] = test system: ACHN renal
[8] = test system: SK-MEL-5 melanoma
[9] = test system: SNB-19 CNS
[10] = test system: HCT-15 colon
[11] = test system: RXF 393 renal
[12] = test system: HS 578T breast
[13] = test system: T-47D breast
[14] = test system: BT-549 breast
[15] = test system: RPMI-8226 leukemia
[16] = test system: HT29 colon
[17] = test system: DU-145 prostate
[18] = test system: HCC-2998 colon
[19] = test system: OVCAR-4 ovarian
[20] = test system: IGROV1 ovarian
[21] = test system: OVCAR-5 ovarian
[22] = test system: MALME-3M melanoma
[23] = test system: UACC-62 melanoma
[24] = test system: TK-10 renal
[25] = test system: U251 CNS
[26] = test system: UO-31 renal
[27] = test system: HOP-92 NSCLC
[28] = test system: NCI-H226 lung
[29] = test system: SK-MEL-28 melanoma
[30] = test system: CAKI-1 renal
[31] = test system: SR leukemia
[32] = test system: SNB-75 CNS
[33] = test system: LOX IMVI melanoma
[34] = test system: MOLT-4 leukemia
[35] = test system: NCI-H460 lung
[36] = test system: 786-0 renal
[37] = test system: NCI-H23 lung
[38] = test system: COLO 205 colon
[39] = test system: OVCAR-3 ovarian
[40] = test system: KM12 colon
[41] = test system: A498 renal
[42] = test system: SN12C renal
[43] = test system: PC-3 prostate
[44] = test system: NCI/ADR-RES ovarian
[45] = test system: MDA-MB-435
[46] = test system: SF-295 CNS
[47] = test system: MCF7 breast
[48] = test system: SF-268 CNS
[49] = test system: SK-MEL-2 melanoma
[50] = test system: SK-OV-3 ovarian
[51] = test system: SW-620 colon
[52] = test system: HL-60(TB) leukemia
[53] = test system: HOP-62 NSCLC

Fc1ccc2[nH]c3c(NCCCN4CCOCC4)ncnc3c2c1
84.1 µM: TGI [27]
42.4 µM: TGI [38]
40.4 µM: TGI [23]
73.1 µM: TGI [8]
99.4 µM: TGI [14]
> 100 µM: TGI [2] | TGI [3] | TGI [4] | TGI [5] | TGI [6] | TGI [7] | TGI [9] | TGI [10] | TGI [11] | TGI [12] | TGI [13] | TGI [15] | TGI [16] | TGI [17] | TGI [18] | TGI [19] | TGI [20] | TGI [21] | TGI [24] | TGI [25] | TGI [26] | TGI [28] | TGI [29] | TGI [30] | TGI [31] | TGI [32] | TGI [33] | TGI [34] | TGI [35] | TGI [36] | TGI [37] | TGI [39] | TGI [40] | TGI [41] | TGI [42] | TGI [43] | TGI [44] | TGI [45] | TGI [46] | TGI [47] | TGI [48] | TGI [49] | TGI [50] | TGI [51] | TGI [52] | TGI [53]
62.7 µM: TGI [1]
inactive: GI50 [1] 21.3 µM | GI50 [2] 33.7 µM | GI50 [3] 66.8 µM | GI50 [4] 26.2 µM | GI50 [5] 23.6 µM | GI50 [6] 36 µM | GI50 [7] 47.5 µM | GI50 [8] 21.3 µM | GI50 [9] > 100 µM | GI50 [10] 32.1 µM | GI50 [11] 34.5 µM | GI50 [12] 41.9 µM | GI50 [13] 35.7 µM | GI50 [14] 22.5 µM | GI50 [15] 31.4 µM | GI50 [16] 29 µM | GI50 [17] 88 µM | GI50 [18] 61.4 µM | GI50 [19] 65.8 µM | GI50 [20] 49.1 µM | GI50 [21] 50.5 µM | GI50 [22] 27.4 µM | GI50 [23] 17.5 µM | GI50 [24] 66.4 µM | GI50 [25] 48.8 µM | GI50 [26] 33 µM | GI50 [27] 13.5 µM | GI50 [28] 63.3 µM | GI50 [29] 70.4 µM | GI50 [30] 34.2 µM | GI50 [31] 28.8 µM | GI50 [32] 37.5 µM | GI50 [33] 30.7 µM | GI50 [34] 50.7 µM | GI50 [35] 38.5 µM | GI50 [36] > 100 µM | GI50 [37] 51.4 µM | GI50 [38] 20.7 µM | GI50 [39] > 100 µM | GI50 [40] 48.8 µM | GI50 [41] 28.1 µM | GI50 [42] 77.8 µM | GI50 [43] 65.7 µM | GI50 [44] > 100 µM | GI50 [45] 51 µM | GI50 [46] 61.2 µM | GI50 [47] 41.5 µM | GI50 [48] 88.2 µM | GI50 [49] 52 µM | GI50 [50] > 100 µM | GI50 [51] 40.8 µM | GI50 [52] 51.9 µM | GI50 [53] 42.8 µM
89.1 µM: TGI [22]
